Results as given in ChEMBL document CHEMBL1955741, “Identification of fused bicyclic heterocycles as potent and selective 5-HT(2A) receptor antagonists for the treatment of insomnia” (Bioorg Med Chem Lett, 2012).
Activity calls are given as the source filed them. No cut-off for these calls is given here.

Columns and labels:
[1] = Plasma concentration in rat at 3 mg/kg after 0.75 hrs; format: ADME, organism-based; set-up: dose 3 mg/kg
Rattus norvegicus [2] = assay: Oral bioavailability in rat; format: ADME, organism-based; details: in vivo
Rattus norvegicus [3] = assay: Volume of distribution at steady state in […] rat; format: ADME, organism-based; details: in vivo
Rattus norvegicus [4] = assay: Total clearance in iv dosed rat; format: ADME, organism-based; details: in vivo
[5] = Half life in po dosed rat; format: ADME, organism-based; details: in vivo
Rattus norvegicus [6] = assay: Inhibition of DOI-induced hypolocomotion in rat at 3 mg/kg coadministered with DOI 10 mins prior testing; format: functional, organism-based; set-up: dose 3 mg/kg
[7] = target: T1, 5-hydroxytryptamine receptor 2C (Homo sapiens, UniProt P28335)
T1 sequence (P28335 whole entry): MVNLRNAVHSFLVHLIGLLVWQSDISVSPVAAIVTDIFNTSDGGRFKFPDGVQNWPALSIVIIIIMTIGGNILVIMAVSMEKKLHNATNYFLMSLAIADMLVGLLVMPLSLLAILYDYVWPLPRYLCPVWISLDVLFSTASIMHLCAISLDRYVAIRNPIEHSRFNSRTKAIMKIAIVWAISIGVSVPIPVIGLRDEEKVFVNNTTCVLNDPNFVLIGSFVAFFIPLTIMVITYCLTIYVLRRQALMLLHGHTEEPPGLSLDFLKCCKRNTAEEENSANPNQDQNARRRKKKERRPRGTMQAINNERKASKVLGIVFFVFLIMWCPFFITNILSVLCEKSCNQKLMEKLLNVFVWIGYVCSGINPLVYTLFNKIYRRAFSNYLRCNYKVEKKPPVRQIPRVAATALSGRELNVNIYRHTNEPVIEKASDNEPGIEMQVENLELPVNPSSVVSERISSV

[8] = target: 5-hydroxytryptamine receptor 2A (Homo sapiens, UniProt P28223)
Sequence of 5-hydroxytryptamine receptor 2A (P28223 whole entry): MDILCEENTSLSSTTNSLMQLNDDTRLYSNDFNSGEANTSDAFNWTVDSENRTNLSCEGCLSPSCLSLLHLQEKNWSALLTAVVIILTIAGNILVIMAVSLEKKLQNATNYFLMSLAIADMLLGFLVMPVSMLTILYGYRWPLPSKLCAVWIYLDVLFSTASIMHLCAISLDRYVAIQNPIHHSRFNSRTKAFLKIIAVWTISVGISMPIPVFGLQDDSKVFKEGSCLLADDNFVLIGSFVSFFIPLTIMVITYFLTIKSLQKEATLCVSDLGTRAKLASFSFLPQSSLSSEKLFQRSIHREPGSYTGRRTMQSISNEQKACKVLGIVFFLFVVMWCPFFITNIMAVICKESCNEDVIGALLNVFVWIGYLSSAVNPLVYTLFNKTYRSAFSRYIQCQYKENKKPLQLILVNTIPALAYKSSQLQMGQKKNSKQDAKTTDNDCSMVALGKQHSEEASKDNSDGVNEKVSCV
Description: Displacement of [125I]-DOI from recombinant human 5HT2A receptor

Canis familiaris [9] = assay: Toxicity in telemetered dog model assessed as change in ECG measures upto 30 mg/kg; format: organism-based, Canis lupus familiaris; set-up: dose 30 mg/kg; details: in vivo
[10] = Plasma concentration in rat at 0.3 mg/kg after 0.75 hrs; format: ADME, organism-based; set-up: dose 0.3 mg/kg
[11] = Ratio of drug level in brain to plasma in rat at 0.3 mg/kg; format: ADME, organism-based; set-up: dose 0.3 mg/kg; details: read-out: BPR
[12] = Half life in rat liver microsomes; format: ADME, Microsome
[13] = target: T2, Alpha-2A adrenergic receptor (Homo sapiens) (UniProt P08913); assay: Binding affinity to adrenergic alpha 2 receptor at 10 uM
T2 sequence (whole entry): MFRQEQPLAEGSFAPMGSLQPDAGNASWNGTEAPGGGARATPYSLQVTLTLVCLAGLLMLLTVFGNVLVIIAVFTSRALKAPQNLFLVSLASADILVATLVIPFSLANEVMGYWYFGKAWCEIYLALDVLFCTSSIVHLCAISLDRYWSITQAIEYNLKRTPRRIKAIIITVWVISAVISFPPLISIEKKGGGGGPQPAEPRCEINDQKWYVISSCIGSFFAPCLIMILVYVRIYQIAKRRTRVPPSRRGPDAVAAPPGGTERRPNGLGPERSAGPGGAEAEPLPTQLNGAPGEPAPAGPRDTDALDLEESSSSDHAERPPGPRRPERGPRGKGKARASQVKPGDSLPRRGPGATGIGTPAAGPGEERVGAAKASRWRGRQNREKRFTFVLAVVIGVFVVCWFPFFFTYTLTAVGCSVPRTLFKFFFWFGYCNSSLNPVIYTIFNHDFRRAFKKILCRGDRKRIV

[14] = target: T3, Alpha-1A adrenergic receptor (Homo sapiens) (UniProt P35348); assay: Binding affinity to adrenergic alpha 1 receptor at 10 uM
T3 sequence (whole entry): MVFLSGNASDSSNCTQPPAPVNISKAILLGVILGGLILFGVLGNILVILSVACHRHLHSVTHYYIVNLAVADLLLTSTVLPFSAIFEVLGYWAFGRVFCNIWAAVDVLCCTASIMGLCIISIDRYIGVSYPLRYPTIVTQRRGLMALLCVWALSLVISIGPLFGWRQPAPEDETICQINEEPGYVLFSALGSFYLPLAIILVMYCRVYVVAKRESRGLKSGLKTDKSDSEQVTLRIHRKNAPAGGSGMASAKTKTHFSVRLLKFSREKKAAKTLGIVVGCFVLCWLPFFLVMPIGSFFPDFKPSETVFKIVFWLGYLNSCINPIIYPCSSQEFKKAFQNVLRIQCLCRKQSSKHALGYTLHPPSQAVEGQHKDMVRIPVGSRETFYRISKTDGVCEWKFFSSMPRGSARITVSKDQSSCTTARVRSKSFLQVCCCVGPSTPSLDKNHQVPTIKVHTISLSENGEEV

[15] = target: D(1B) dopamine receptor (Homo sapiens) (UniProt P21918); assay: Binding affinity to dopamine receptor D5 at 10 uM
Sequence of D(1B) dopamine receptor (Homo sapiens) (P21918 whole entry): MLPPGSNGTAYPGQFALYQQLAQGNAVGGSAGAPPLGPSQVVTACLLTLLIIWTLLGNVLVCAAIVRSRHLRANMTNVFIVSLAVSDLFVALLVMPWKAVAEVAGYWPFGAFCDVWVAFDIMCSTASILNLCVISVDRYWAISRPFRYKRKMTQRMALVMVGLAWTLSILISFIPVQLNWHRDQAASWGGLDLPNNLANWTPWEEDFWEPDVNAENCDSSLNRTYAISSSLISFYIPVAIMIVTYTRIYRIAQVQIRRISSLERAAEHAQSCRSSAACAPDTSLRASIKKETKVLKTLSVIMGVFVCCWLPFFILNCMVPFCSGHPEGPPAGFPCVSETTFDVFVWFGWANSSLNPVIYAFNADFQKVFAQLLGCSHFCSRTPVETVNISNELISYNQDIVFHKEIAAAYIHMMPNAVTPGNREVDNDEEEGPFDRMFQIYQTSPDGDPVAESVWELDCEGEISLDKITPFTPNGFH

[16] = target: T4, D(4) dopamine receptor (Homo sapiens) (UniProt P21917); assay: Binding affinity to dopamine receptor D4 at 10 uM
T4 sequence (whole entry): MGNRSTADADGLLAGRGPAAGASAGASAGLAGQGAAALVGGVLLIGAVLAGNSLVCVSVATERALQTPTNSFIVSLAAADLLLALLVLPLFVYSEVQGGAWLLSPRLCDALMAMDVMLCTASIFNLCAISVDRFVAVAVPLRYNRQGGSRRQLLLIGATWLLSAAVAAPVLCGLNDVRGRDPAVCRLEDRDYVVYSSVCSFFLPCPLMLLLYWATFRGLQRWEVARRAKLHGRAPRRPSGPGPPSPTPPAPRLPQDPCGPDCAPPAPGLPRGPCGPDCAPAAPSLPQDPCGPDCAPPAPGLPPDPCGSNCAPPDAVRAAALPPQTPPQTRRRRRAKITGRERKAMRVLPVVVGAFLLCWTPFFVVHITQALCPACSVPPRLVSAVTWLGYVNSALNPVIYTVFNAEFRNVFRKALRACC

[17] = target: D(3) dopamine receptor (Homo sapiens) (UniProt P35462); assay: Binding affinity to dopamine receptor D3 at 10 uM
Sequence of D(3) dopamine receptor (Homo sapiens) (P35462 whole entry): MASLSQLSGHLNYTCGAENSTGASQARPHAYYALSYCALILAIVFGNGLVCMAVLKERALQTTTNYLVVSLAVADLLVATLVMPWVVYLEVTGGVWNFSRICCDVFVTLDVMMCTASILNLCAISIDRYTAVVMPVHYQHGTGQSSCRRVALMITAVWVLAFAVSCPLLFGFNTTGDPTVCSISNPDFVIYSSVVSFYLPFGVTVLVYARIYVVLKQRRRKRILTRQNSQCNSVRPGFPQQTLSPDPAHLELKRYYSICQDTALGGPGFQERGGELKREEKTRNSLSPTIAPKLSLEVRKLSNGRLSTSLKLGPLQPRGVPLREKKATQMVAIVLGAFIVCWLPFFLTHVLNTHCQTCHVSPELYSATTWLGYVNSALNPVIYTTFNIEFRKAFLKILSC

[18] = target: D(2) dopamine receptor (Homo sapiens) (UniProt P14416); assay: Binding affinity to dopamine receptor D2 at 10 uM
Sequence of D(2) dopamine receptor (Homo sapiens) (P14416 whole entry): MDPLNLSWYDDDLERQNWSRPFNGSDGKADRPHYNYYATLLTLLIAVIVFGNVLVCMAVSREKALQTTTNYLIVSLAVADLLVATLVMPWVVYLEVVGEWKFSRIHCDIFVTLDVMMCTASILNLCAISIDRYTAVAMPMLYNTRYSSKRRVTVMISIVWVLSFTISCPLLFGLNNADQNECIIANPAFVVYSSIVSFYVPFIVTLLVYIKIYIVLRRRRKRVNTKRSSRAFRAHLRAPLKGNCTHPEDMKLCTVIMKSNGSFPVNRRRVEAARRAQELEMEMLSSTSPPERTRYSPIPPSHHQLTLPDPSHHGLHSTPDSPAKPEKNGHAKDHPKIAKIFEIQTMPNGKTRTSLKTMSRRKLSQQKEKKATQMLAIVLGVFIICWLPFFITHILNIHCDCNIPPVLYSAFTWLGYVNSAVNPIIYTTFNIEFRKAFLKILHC

[19] = target: D(1A) dopamine receptor (Homo sapiens) (UniProt P21728); assay: Binding affinity to dopamine receptor D1 at 10 uM
Sequence of D(1A) dopamine receptor (Homo sapiens) (P21728 whole entry): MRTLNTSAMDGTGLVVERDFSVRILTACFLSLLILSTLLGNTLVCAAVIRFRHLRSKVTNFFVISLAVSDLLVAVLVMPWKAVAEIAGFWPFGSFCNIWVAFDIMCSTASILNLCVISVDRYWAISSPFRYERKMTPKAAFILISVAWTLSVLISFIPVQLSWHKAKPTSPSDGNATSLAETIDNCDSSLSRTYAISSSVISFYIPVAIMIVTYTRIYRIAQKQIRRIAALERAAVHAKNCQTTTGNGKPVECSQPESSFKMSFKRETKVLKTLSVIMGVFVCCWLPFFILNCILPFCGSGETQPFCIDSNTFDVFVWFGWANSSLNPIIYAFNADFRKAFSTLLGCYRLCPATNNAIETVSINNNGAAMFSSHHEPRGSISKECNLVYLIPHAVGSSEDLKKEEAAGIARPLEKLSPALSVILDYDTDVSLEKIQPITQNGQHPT

Rattus norvegicus [20] = assay: Antiinsomnia activity in po dosed rat assessed as increase in non-rapid eye movement bout duration after 5 hrs; format: functional, organism-based
Rattus norvegicus [21] = assay: Antiinsomnia activity in po dosed rat assessed as decrease in non-rapid eye movement bout number after 5 hrs; format: functional, organism-based
Rattus norvegicus [22] = assay: Antiinsomnia activity in po dosed rat assessed as increase in sleep consolidation after 5 hrs; format: functional, organism-based
Rattus norvegicus [23] = assay: Antiinsomnia activity in rat assessed as increase in delta power at 0.1 mg/kg, po after 3 to 4 hrs; format: functional, organism-based; set-up: dose 0.1 mg/kg
Rattus norvegicus [24] = assay: Antiinsomnia activity in rat assessed as increase in delta power at 0.1 mg/kg, po after 1 hr; format: functional, organism-based; set-up: dose 0.1 mg/kg
Rattus norvegicus [25] = assay: AUClast in rat at 3 mg/kg, po; format: ADME, organism-based, Plasma; set-up: time 0 - last, dose 3 mg/kg, route oral; details: in vivo
[26] = Cmax in rat at 3 mg/kg, po; format: ADME, organism-based; set-up: dose 3 mg/kg, route oral; details: in vivo
Rattus norvegicus [27] = assay: Inhibition of DOI-induced hypolocomotion in rat drug coadministered with DOI 10 mins prior testing; format: functional
[28] = Drug uptake in rat brain at 0.3 mg/kg after 0.75 hrs; format: ADME, organism-based; set-up: dose 0.3 mg/kg; details: read-out: Drug uptake
Cytochrome P450 1A2 = target: T5, Cytochrome P450 1A2 (Homo sapiens, UniProt P05177); assay: Inhibition of CYP1A2 in human liver microsomes; format: ADME, Microsome
T5 sequence (P05177 whole entry): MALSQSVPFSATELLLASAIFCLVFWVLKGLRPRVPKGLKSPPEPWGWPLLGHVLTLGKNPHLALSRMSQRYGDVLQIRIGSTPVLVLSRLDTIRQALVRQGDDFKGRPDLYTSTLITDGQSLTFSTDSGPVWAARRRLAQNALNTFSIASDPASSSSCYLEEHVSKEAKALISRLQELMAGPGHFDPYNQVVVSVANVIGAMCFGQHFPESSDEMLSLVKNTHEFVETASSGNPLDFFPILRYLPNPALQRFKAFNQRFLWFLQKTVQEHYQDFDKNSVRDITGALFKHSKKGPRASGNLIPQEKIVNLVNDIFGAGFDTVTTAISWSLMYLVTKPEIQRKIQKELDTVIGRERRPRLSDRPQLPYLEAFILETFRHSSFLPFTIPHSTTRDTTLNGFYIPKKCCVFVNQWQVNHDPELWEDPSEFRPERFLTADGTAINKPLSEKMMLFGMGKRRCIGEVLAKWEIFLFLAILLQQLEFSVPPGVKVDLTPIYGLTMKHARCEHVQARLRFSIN

Cytochrome P450 2C9 = Cytochrome P450 2C9 (Homo sapiens, UniProt P11712); assay: Inhibition of CYP2C9 in human liver microsomes; format: ADME, Microsome
Sequence of Cytochrome P450 2C9 (P11712 whole entry): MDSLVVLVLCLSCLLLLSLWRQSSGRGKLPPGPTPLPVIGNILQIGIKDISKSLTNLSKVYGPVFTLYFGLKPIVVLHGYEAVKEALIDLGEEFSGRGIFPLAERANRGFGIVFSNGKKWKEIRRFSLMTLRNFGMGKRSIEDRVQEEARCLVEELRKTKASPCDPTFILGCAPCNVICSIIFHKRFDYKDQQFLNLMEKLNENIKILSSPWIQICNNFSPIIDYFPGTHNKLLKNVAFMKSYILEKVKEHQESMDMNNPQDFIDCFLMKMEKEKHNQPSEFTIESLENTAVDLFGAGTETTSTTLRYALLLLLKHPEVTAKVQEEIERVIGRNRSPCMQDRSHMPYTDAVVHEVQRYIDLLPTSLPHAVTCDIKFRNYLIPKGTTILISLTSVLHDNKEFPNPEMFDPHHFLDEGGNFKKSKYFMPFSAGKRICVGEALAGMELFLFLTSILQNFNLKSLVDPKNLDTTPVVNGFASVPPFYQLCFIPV

Cytochrome P450 2C19 = Cytochrome P450 2C19 (Homo sapiens, UniProt P33261); assay: Inhibition of […] in human liver microsomes; format: ADME, Microsome
Sequence of Cytochrome P450 2C19 (P33261 whole entry): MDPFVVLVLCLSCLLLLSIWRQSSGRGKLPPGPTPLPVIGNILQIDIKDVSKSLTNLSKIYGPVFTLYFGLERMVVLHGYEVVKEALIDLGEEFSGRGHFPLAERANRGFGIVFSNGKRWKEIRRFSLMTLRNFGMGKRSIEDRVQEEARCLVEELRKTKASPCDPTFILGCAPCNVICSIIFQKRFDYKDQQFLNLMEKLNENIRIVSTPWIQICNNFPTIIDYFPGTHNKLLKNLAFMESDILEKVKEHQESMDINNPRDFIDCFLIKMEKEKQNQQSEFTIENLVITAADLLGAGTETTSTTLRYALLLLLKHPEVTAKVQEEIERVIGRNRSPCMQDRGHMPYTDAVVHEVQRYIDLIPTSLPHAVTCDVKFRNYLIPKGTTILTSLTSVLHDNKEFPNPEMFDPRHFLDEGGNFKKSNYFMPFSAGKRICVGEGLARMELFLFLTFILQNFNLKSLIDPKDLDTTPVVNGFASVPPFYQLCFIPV

Cytochrome P450 2D6 = Cytochrome P450 2D6 (Homo sapiens, UniProt P10635); assay: Inhibition of CYP2D6 in human liver microsomes; format: ADME, Microsome
Sequence of Cytochrome P450 2D6 (P10635 whole entry): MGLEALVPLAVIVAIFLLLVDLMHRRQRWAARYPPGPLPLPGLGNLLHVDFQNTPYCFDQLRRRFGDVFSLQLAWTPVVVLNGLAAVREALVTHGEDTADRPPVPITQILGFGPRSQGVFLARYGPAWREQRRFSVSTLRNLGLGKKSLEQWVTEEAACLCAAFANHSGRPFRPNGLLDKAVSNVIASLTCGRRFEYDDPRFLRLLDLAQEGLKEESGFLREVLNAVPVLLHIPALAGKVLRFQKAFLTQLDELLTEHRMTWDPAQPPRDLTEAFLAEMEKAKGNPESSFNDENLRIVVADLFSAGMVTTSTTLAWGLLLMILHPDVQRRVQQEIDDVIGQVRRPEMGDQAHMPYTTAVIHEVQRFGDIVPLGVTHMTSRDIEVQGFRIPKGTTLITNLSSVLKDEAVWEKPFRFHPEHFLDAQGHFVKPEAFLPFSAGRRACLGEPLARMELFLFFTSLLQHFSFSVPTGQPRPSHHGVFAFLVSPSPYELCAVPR

Cytochrome P450 3A4 = Cytochrome P450 3A4 (Homo sapiens, UniProt P08684); assay: Inhibition of CYP3A4 in human liver microsomes; format: ADME, Microsome
Sequence of Cytochrome P450 3A4 (P08684 whole entry): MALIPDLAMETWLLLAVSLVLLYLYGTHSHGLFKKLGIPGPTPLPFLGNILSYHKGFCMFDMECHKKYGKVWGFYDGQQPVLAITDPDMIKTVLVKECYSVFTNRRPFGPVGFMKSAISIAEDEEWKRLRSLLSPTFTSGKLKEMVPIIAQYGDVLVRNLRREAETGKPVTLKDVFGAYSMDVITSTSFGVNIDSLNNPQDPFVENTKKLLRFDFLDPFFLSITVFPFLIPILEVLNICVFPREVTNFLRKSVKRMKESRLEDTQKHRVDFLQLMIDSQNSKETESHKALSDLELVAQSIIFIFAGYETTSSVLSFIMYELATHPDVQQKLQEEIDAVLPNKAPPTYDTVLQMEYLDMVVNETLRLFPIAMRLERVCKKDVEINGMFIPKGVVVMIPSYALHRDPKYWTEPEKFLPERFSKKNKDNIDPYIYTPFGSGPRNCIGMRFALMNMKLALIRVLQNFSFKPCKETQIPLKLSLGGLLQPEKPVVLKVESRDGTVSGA

[29] = Plasma protein binding in human; format: ADME, cell-free; details: read-out: PPB (converted)
Canis familiaris [30] = assay: Toxicity in telemetered dog model assessed as change in hemodynamic measures upto 30 mg/kg; format: organism-based, Canis lupus familiaris; set-up: dose 30 mg/kg; details: in vivo

SMILES: Cn1cc(Br)c(C(=O)N2CCN(CCc3ccc(F)cc3)CC2)n1
- concentration at 0.75 h [1]: 8.3 ng/mL
- bioavailability (Rattus norvegicus [2]): 9%
- Vdss (Rattus norvegicus [3]): 8.1 L/kg
- clearance (Rattus norvegicus [4]): 155 mL/min/kg
- half-life [5]: 84 min
- Activity (Rattus norvegicus [6]): Active

SMILES: O=C(c1cnc2ccccn12)N1CCN(CCc2ccc(F)cc2F)CC1
- Ki [7]: 739 nM
- Ki [8]: 1.7 nM

SMILES: O=C(c1cccn2cc(Br)nc12)N1CCN(CCc2ccc(F)cc2F)CC1
- Ki [7]: 682 nM
- Ki [8]: 1.7 nM

SMILES: O=C(c1cc2n(n1)CCCC2)N1CCN(CCc2ccc(F)cc2F)CC1
- Ki [7]: 717 nM
- Ki [8]: 2.6 nM

SMILES: Nc1cccn2cc(C(=O)N3CCN(CCc4ccc(F)cc4F)CC3)nc12
- Ki [7]: 190 nM
- Ki [8]: 2.7 nM

SMILES: O=C(c1cnn2cccnc12)N1CCN(CCc2ccc(F)cc2F)CC1
- Ki [7]: 910 nM
- Ki [8]: 3.8 nM

SMILES: O=C(c1cccn2ccnc12)N1CCN(CCc2ccc(F)cc2F)CC1
- Activity (Canis familiaris [9]): Non-toxic
- concentration at 0.75 h [10]: 11 ng/mL
- Kp [11]: 1.32
- half-life [12]: 16 min
- Activity [13]: < 50%
- Activity [14]: < 50%
- Activity [15]: < 50%
- Activity [16]: < 50%
- Activity [17]: < 50%
- Activity [18]: < 50%
- Activity [19]: < 50%
- Activity (Rattus norvegicus [20]): Dose-dependent effect
- Activity (Rattus norvegicus [21]): Dose-dependent effect
- Activity (Rattus norvegicus [22]): Dose-dependent effect
- Activity (Rattus norvegicus [23]): Active
- Activity (Rattus norvegicus [24]): Active
- bioavailability (Rattus norvegicus [2]): 47%
- Vdss (Rattus norvegicus [3]): 1.7 L/kg
- clearance (Rattus norvegicus [4]): 58.3 mL/min/kg
- half-life [5]: 30 min
- AUClast (Rattus norvegicus [25]): 440 ng·h/mL
- Cmax [26]: 943 ng/mL
- ED50 (Rattus norvegicus [27]): 0.3 mg/kg
- concentration at 0.75 h [28]: 14.5 ng/mL
- Ki [7]: 524 nM
- IC50 (Cytochrome P450 1A2): > 40000 nM
- IC50 (Cytochrome P450 2C9): > 40000 nM
- IC50 (Cytochrome P450 2C19): > 40000 nM
- IC50 (Cytochrome P450 2D6): > 40000 nM
- IC50 (Cytochrome P450 3A4): > 40000 nM
- fraction unbound [29]: 0.326
- Activity (Canis familiaris [30]): Non-toxic

SMILES: O=C(c1nn2ccccc2c1Br)N1CCN(CCc2ccc(F)cc2F)CC1
- Ki [7]: 496 nM
- Ki [8]: 0.8 nM

SMILES: Cc1nc2ccccn2c1C(=O)N1CCN(CCc2ccc(F)cc2F)CC1
- Ki [7]: 997 nM
- Ki [8]: 3.5 nM

SMILES: O=C(c1cccc2ccnn12)N1CCN(CCc2ccc(F)cc2F)CC1
- Ki [7]: 194 nM
- Ki [8]: 0.4 nM

SMILES: O=C(c1nn2ccccc2c1Cl)N1CCN(CCc2ccc(F)cc2F)CC1
- Ki [7]: 394 nM
- Ki [8]: 0.6 nM

SMILES: O=C(c1cn2ccccc2n1)N1CCN(CCc2ccc(F)cc2F)CC1
- Ki [7]: 596 nM
- Ki [8]: 4.3 nM
